Columns and labels:
mu opioid receptor (MOR) [1] = molecular target: T1, mu opioid receptor (MOR) (Homo sapiens, UniProt P35372); test: PathHunter β-arrestin recruitment assay, PAM mode with EC20 endomorphin-1; type: cell-based; details: for EC50: read-out: β-arr. EC50
In short: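 Enzyme fragment complementation read-out: β-gal ED fragment fused to receptor, EA fused to β-arrestin, recruitment restoring β-gal activity detected by chemiluminescence. EC50 and percent maximal response derived for each compound.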

mu opioid receptor (MOR) [2] = molecular target: T1, mu opioid receptor (MOR); test: Hit Hunter cAMP signaling assay (adenylyl cyclase inhibition), PAM mode with EC20 endomorphin-1; type: cell-based
[3] = maximal response for β-arrestin recruitment
[4] = cAMP EC50, adenylyl cyclase inhibition
[5] = maximal response for adenylyl cyclase inhibition
[6] = adenylyl cyclase inhibition, read-out: cAMP EC50
[7] = maximal response, β-arrestin recruitment
[8] = maximal response, adenylyl cyclase inhibition

T1 sequence (P35372 whole entry, the tested form may be a part): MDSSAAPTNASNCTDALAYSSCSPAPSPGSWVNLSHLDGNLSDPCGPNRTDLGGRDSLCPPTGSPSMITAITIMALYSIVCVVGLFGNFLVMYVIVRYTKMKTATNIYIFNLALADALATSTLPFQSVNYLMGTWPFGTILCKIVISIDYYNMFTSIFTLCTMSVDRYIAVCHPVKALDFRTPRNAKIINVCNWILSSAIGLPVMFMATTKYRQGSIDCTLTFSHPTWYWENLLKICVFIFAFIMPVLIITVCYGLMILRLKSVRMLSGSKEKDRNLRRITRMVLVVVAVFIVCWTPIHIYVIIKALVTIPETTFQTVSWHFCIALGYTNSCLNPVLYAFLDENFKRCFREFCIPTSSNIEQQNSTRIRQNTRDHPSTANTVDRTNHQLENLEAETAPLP

Row | Structure (SMILES) | β-arr Max. Resp. (mu opioid receptor (MOR) [1]; [3]) | EC50 (mu opioid receptor (MOR) [1]; β-arrestin recruitment) [µM] | EC50 (mu opioid receptor (MOR) [2]; [4]) [µM] | cAMP Max. Resp. (mu opioid receptor (MOR) [2]; [5]) | EC50 (mu opioid receptor (MOR) [2]; [6]) [µM] | β-arr Max. Resp. (mu opioid receptor (MOR) [1]; [7]) | cAMP Max. Resp. (mu opioid receptor (MOR) [2]; [8])
1 | Cc1nc(C2CCCCN2c2nc(Cl)ncc2F)no1 (centres unmarked) [compound 409] | D (D represents a maximal response of < 40%) | < 0.7 | < 0.7 | D (D represents a maximal response of < 40%) |  |  | 
2 | Cc1nccc(N2CCCCC2c2cncc(Cl)n2)n1 (centres unmarked) [compound 396] | D (D represents a maximal response of < 40%) | < 0.7 | < 0.7 | D (D represents a maximal response of < 40%) |  |  | 
3 | Cc1cnc(N2CCCCC2c2cccc(F)n2)nc1Cl (centres unmarked) [compound 268] | D (D represents a maximal response of < 40%) | > 2.1 | > 2.1 | F (F represents a maximal response of > 60%) |  |  | 
4 | Fc1cc(Cl)cc(CN2CCCCC2c2cccc(C(F)(F)F)n2)c1 (centres unmarked) [compound 164] | F (F represents a maximal response of > 60%) | 0.7 to 2.1 | < 0.7 | E (E represents a maximal response of 40-60%) |  |  | 
5 | CC(=O)N1CCN(c2nc(Cl)ncc2F)C(c2cc(F)cc(C(F)(F)F)c2)C1 (racemic) [Compound 308] | E (E represents a maximal response of 40-60%) | > 2.1 |  | F (F represents a maximal response of > 60%) | > 2.1 |  | 
6 | Fc1ccc(N2CCCCC2c2ccc(F)c(Cl)c2)cc1 (centres unmarked) [compound 475] |  | > 2.1 | > 2.1 |  |  | F (F represents a maximal response of > 60%) | D (D represents a maximal response of < 40%)
7 | Fc1cnc(Cl)nc1N1CCCCC1c1ccc2c(c1)CCO2 (centres unmarked) [compound 371] | D (D represents a maximal response of < 40%) | < 0.7 | < 0.7 | D (D represents a maximal response of < 40%) |  |  | 
8 | Fc1ccc(C2CCCCN2c2ccnc(Cl)n2)cc1Cl (centres unmarked) [compound 470] |  | > 2.1 | > 2.1 |  |  | F (F represents a maximal response of > 60%) | E (E represents a maximal response of 40-60%)
9 | CCN(CC)c1ncc(F)c(N2CCCCC2c2cccc(C(F)(F)F)c2)n1 (centres unmarked) [compound 254] | D (D represents a maximal response of < 40%) | > 2.1 | > 2.1 | E (E represents a maximal response of 40-60%) |  |  | 
10 | Fc1cc(C2CCCCN2c2nc(Cl)ncc2F)ccc1Br (centres unmarked) [compound 290] | F (F represents a maximal response of > 60%) | < 0.7 | < 0.7 | D (D represents a maximal response of < 40%) |  |  | 
11 | O=S(=O)(c1ccc(Cl)cc1)N1CCCCC1c1ccc(F)c(Br)c1 (single isomer, unassigned) [compound 56] | F (F represents a maximal response of > 60%) | > 2.1 |  | E (E represents a maximal response of 40-60%) | 0.7 to 2.1 |  | 
12 | COc1cnc(C2CCCCN2c2nc(Cl)ncc2F)nc1Cl (centres unmarked) [compound 379] | D (D represents a maximal response of < 40%) | < 0.7 | < 0.7 | D (D represents a maximal response of < 40%) |  |  | 
13 | CN1CCN(c2nc(Cl)ncc2F)C(c2cccc(C(F)(F)F)c2)C1 (racemic) [Compound 282] | F (F represents a maximal response of > 60%) | 0.7 to 2.1 |  | D (D represents a maximal response of < 40%) | 0.7 to 2.1 |  | 
14 | Fc1cc(C2C3CCC(C3)N2c2nc(Cl)ncc2F)cc(C(F)(F)F)c1 (centres unmarked) [compound 139] | F (F represents a maximal response of > 60%) | > 2.1 | > 2.1 | E (E represents a maximal response of 40-60%) |  |  | 
15 | Fc1cnc(Cl)nc1N1CCCCC1c1ccc(Cl)c(C(F)(F)F)c1 (centres unmarked) [compound 128] | F (F represents a maximal response of > 60%) | < 0.7 | 0.7 to 2.1 | E (E represents a maximal response of 40-60%) |  |  | 
16 | Fc1ccc(C2COCCN2c2nc(Cl)ncc2F)cc1Cl (racemic) [Compound 189] | F (F represents a maximal response of > 60%) | 0.7 to 2.1 |  | F (F represents a maximal response of > 60%) | 0.7 to 2.1 |  | 
17 | COc1ccc(C2CCCCN2c2ncncc2F)cc1Br (centres unmarked) [compound 233] | F (F represents a maximal response of > 60%) | > 2.1 | > 2.1 | F (F represents a maximal response of > 60%) |  |  | 
18 | Cc1ccc(C2C(C)CCN2S(=O)(=O)c2ccc(Cl)cc2)cc1Br (mixture of isomers) [Compound 104] | F (F represents a maximal response of > 60%) | 0.7 to 2.1 |  | D (D represents a maximal response of < 40%) | 0.7 to 2.1 |  | 

Row | Structure (SMILES) | β-arr Max. Resp. (mu opioid receptor (MOR) [1]; [3]) | EC50 (mu opioid receptor (MOR) [1]; β-arrestin recruitment) [µM] | EC50 (mu opioid receptor (MOR) [2]; [4]) [µM] | cAMP Max. Resp. (mu opioid receptor (MOR) [2]; [5]) | EC50 (mu opioid receptor (MOR) [2]; [6]) [µM] | β-arr Max. Resp. (mu opioid receptor (MOR) [1]; [7]) | cAMP Max. Resp. (mu opioid receptor (MOR) [2]; [8])
19 | O=S(=O)(c1ccc(Cl)cc1)N1CCCCC1c1ccc(F)c(Br)c1 (single isomer, unassigned) [compound 446] |  | > 2.1 |  |  | > 2.1 | F (F represents a maximal response of > 60%) | E (E represents a maximal response of 40-60%)
20 | CC1CCN(S(=O)(=O)c2ccc(Cl)cc2)C1c1ccc(F)c(F)c1F (mixture of isomers) [Compound 98] | E (E represents a maximal response of 40-60%) | > 2.1 |  | D (D represents a maximal response of < 40%) | > 2.1 |  | 
21 | COC(=O)c1cc(C2CCCCN2S(=O)(=O)c2ccc(Cl)cc2)ccn1 (racemic) [compound 81] | E (E represents a maximal response of 40-60%) | > 2.1 |  | D (D represents a maximal response of < 40%) | > 2.1 |  | 
22 | COc1ccc(C2CCCCN2S(C)(=O)=O)cc1Br (centres unmarked) [compound 16] | D (D represents a maximal response of < 40%) | > 2.1 | > 2.1 | D (D represents a maximal response of < 40%) |  |  | 
23 | [2H]C1(c2ccc(F)c(Br)c2)C(F)CCCN1S(=O)(=O)c1ccc(Cl)cc1F (centres unmarked) [Compound 37] | F (F represents a maximal response of > 60%) |  |  | D (D represents a maximal response of < 40%) |  |  | 
24 | Oc1ncc(F)c(N2CCCCC2c2cccc(C(F)(F)F)c2)n1 (centres unmarked) [compound 349] | D (D represents a maximal response of < 40%) | < 0.7 | < 0.7 | D (D represents a maximal response of < 40%) |  |  | 
25 | Fc1cc(C2CCCCN2c2nc(Cl)ncc2F)cc(C(F)(F)F)c1 (single isomer, unassigned) [compound 423] |  | < 0.7 | < 0.7 |  |  | D (D represents a maximal response of < 40%) | D (D represents a maximal response of < 40%)
26 | Fc1cc(C2CC(F)CCN2c2nc(Cl)ncc2F)cc(C(F)(F)F)c1 (centres unmarked) [compound 196] | F (F represents a maximal response of > 60%) | < 0.7 | < 0.7 | F (F represents a maximal response of > 60%) |  |  | 
27 | CC1CCN(S(=O)(=O)c2ccc(Cl)cc2)C1c1ccc(F)cc1 (mixture of isomers) [Compound 95] | F (F represents a maximal response of > 60%) | > 2.1 |  | D (D represents a maximal response of < 40%) | > 2.1 |  | 
28 | FC(F)(F)c1cccc(C2CCCCN2Cc2ccc(Cl)cc2)n1 (centres unmarked) [compound 146] | F (F represents a maximal response of > 60%) | > 2.1 | > 2.1 | D (D represents a maximal response of < 40%) |  |  | 
29 | O=S(=O)(c1ccc(Cl)cc1)N1C2CCC(C2)C1c1ccc(F)c(Br)c1 (centres unmarked) [Compound 178] | F (F represents a maximal response of > 60%) | < 0.7 |  | D (D represents a maximal response of < 40%) | 0.7 to 2.1 |  | 
30 | CC1CCN(S(=O)(=O)c2ccc(Cl)cc2)C1c1ccc2c(c1)OCO2 (mixture of isomers) [Compound 96] | F (F represents a maximal response of > 60%) | > 2.1 |  | D (D represents a maximal response of < 40%) | > 2.1 |  | 
31 | O=S(=O)(c1ccc(Cl)cc1)N1CCCCC1c1cccc(C(F)(F)F)n1 (centres unmarked) [compound 3] | F (F represents a maximal response of > 60%) | < 0.7 | < 0.7 | F (F represents a maximal response of > 60%) |  |  | 
32 | O=S(=O)(c1ccc(Cl)cc1)N1CCCCC1c1ccc2c(c1)CCO2 (racemic) [compound 66] | F (F represents a maximal response of > 60%) | > 2.1 |  | E (E represents a maximal response of 40-60%) | > 2.1 |  | 
33 | Cc1cc(C2CCCCN2S(=O)(=O)c2ccc(Cl)cc2)ccc1F (racemic) [compound 67] | F (F represents a maximal response of > 60%) | > 2.1 |  | E (E represents a maximal response of 40-60%) | 0.7 to 2.1 |  | 
34 | [2H]C1(c2ccc(F)c(Br)c2)C(F)CCCN1S(=O)(=O)c1cccc(Cl)c1 (centres unmarked) [Compound 32] | F (F represents a maximal response of > 60%) |  |  | D (D represents a maximal response of < 40%) |  |  | 
35 | Fc1cnc(Cl)nc1N1CCCCC1c1cc(F)c(F)c(F)c1 (centres unmarked) [compound 327] | D (D represents a maximal response of < 40%) | < 0.7 | < 0.7 | D (D represents a maximal response of < 40%) |  |  | 
36 | CN1CCN(c2nc(Cl)ncc2F)C(c2cc(F)cc(C(F)(F)F)c2)C1 (racemic) [Compound 305] | F (F represents a maximal response of > 60%) | 0.7 to 2.1 |  | F (F represents a maximal response of > 60%) | 0.7 to 2.1 |  | 
